Where a SMILES comes first, the peptide text is derived from it. Bridges are numbered along the chain shown (N, C = ends). [ ]: non-standard residue; d: D form. The star is where a group is joined. Stearoyl = CCCCCCCCCCCCCCCCCC(=O)*; Aib = CC(C)(N)C(=O)O
Assays:
Format in all cases: cell-based
glucagon receptor = target: T1, glucagon receptor (Homo sapiens, UniProt P47871); assay: cAMP synthesis functional assay (firefly luciferase reporter in HEK293 cells), glucagon receptor
T1 construct: expressed in transfected cells; host or cells: HEK293

GLP-1 receptor = target: T2, GLP-1 receptor (Homo sapiens, UniProt P43220); assay: cAMP synthesis functional assay (firefly luciferase reporter in HEK293 cells), GLP-1 receptor
T2 construct: expressed in transfected cells; host or cells: HEK293

GIP receptor = target: T3, GIP receptor (Homo sapiens, UniProt P48546); assay: cAMP synthesis functional assay (firefly luciferase reporter in HEK293 cells), GIP receptor; conditions: for EC50: GIP Receptor EC50, cAMP luciferase reporter assay as in Example 16
T3 construct: expressed in transfected cells; host or cells: HEK293
T3 sequence (P48546 22-466): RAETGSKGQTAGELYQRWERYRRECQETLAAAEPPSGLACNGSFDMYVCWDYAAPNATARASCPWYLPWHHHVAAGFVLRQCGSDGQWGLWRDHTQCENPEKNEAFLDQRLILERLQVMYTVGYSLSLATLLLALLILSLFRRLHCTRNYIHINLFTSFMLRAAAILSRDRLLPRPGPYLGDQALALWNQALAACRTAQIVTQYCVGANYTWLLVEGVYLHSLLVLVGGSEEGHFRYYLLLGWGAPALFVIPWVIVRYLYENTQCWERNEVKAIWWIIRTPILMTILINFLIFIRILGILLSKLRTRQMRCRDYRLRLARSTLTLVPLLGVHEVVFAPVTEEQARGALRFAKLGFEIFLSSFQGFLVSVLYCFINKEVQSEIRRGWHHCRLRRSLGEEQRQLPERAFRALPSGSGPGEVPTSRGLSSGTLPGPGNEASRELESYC

[1] = Table 1, relative to the native hormone of the indicated receptor
[2] = relative to the standard (Std.) EC50 of the same run
[3] = GLP-1 Receptor EC50, cAMP luciferase reporter assay as in Example 16

T2 sequence (P43220 24-463, species assumed): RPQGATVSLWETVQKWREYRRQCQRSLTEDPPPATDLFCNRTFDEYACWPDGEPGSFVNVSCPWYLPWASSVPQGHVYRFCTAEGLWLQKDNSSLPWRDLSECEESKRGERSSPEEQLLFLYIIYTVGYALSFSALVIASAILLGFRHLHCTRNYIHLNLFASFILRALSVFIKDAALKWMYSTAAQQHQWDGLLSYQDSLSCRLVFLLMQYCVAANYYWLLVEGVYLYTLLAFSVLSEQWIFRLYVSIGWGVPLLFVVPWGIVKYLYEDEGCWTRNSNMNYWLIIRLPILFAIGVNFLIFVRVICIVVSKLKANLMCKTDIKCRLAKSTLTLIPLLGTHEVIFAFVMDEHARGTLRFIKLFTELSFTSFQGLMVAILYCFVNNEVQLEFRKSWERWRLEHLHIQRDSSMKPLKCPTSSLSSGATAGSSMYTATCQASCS
T1 sequence (P47871 26-477): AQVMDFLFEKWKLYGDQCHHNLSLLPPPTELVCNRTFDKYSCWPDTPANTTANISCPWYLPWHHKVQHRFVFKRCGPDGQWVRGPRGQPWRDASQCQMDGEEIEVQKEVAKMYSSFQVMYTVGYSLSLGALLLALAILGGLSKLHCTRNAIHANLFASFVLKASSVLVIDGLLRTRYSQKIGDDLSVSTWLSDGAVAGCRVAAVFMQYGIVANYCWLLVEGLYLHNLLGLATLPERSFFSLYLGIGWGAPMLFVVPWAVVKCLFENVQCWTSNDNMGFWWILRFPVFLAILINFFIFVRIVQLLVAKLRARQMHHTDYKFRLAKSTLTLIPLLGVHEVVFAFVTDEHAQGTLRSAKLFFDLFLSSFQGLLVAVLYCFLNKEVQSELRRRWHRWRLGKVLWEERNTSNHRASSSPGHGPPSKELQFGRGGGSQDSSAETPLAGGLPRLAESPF

SMILES	Glucagon Receptor relative activity (glucagon receptor; [1])	EC50 (GLP-1 receptor; GLP-1 Receptor EC50, nM, Table 1)	GLP-1 Receptor relative activity (GLP-1 receptor; [1])	GIP Receptor relative activity (GIP receptor; [1])	EC50 (glucagon receptor; Glucagon Receptor EC50, nM, Table 1)	Glucagon Receptor relative activity (glucagon receptor; [2])	EC50 (GLP-1 receptor; [3])	GLP-1 Receptor relative activity (GLP-1 receptor; [2])	EC50 (GIP receptor)	GIP Receptor relative activity (GIP receptor; [2])	EC50 (glucagon receptor; Glucagon Receptor EC50, cAMP luciferase reporter assay as in Example 16)
CC[C@H](C)[C@H](NC(=O)[C@H](CO)NC(=O)[C@H](Cc1ccc(O)cc1)NC(=O)[C@H](CC(=O)O)NC(=O)[C@H](CO)NC(=O)[C@@H](NC(=O)[C@H](Cc1ccccc1)NC(=O)[C@@H](NC(=O)CNC(=O)[C@H](CCC(N)=O)NC(=O)[C@H](CO)NC(=O)[C@@H](N)Cc1ccc(O)cc1)[C@@H](C)O)[C@@H](C)O)C(=O)N[C@@H](Cc1ccc(O)cc1)C(=O)N[C@@H](CC(C)C)C(=O)N[C@@H](CC(=O)O)C(=O)N[C@H]1CCC(=O)NCCCC[C@@H](C(=O)N[C@@H](CCC(=O)O)C(=O)N[C@@H](Cc2ccccc2)C(=O)N[C@H](C(=O)N[C@@H](CC(N)=O)C(=O)N[C@@H](Cc2c[nH]c3ccccc23)C(=O)N[C@@H](CC(C)C)C(=O)N[C@@H](CC(C)C)C(=O)N[C@@H](C)C(=O)NCC(N)=O)C(C)C)NC(=O)[C@H](C)NC(=O)[C@H](C)NC(=O)[C@H](CCC(N)=O)NC1=O [mt-163] (H-YSQGTFTSDYSIYLDEQAAKEFVNWLLAG-NH2; lactam 16-20; N-terminus assumed)	251.85%	0.04 nM	30.00%	4.73%	–	–	–	–	–	–	–
CC[C@H](C)[C@H](NC(=O)[C@H](CO)NC(=O)[C@H](Cc1ccc(O)cc1)NC(=O)[C@H](CC(=O)O)NC(=O)[C@H](CO)NC(=O)[C@@H](NC(=O)[C@H](Cc1ccccc1)NC(=O)[C@@H](NC(=O)CNC(=O)[C@H](CCC(=O)O)NC(=O)[C@H](C)NC(=O)[C@@H](N)Cc1ccc(O)cc1)[C@@H](C)O)[C@@H](C)CC)C(=O)N[C@@H](C)C(=O)N[C@@H](CCSC)C(=O)N[C@@H](CC(=O)O)C(=O)N[C@@H](CCCCN)C(=O)N[C@H](C(=O)N[C@@H](Cc1c[nH]cn1)C(=O)N[C@@H](CCC(N)=O)C(=O)N[C@@H](CCC(N)=O)C(=O)N[C@@H](CC(=O)O)C(=O)N[C@@H](Cc1ccccc1)C(=O)N[C@H](C(=O)N[C@@H](CC(N)=O)C(=O)N[C@@H](Cc1c[nH]c2ccccc12)C(=O)N[C@@H](CC(C)C)C(=O)N[C@@H](CC(C)C)C(=O)N[C@@H](C)C(=O)N[C@@H](CCC(N)=O)C(=O)N[C@@H](CCCCN)C(=O)NCC(=O)N[C@@H](CCCCN)C(=O)N[C@@H](CCCCN)C(=O)N[C@@H](CC(N)=O)C(=O)N[C@@H](Cc1c[nH]c2ccccc12)C(=O)N[C@@H](CC(C)C)C(=O)N[C@@H](CCCCN)C(=O)N[C@@H](Cc1c[nH]cn1)C(=O)N[C@@H](CC(N)=O)C(=O)N[C@H](C(=O)N[C@H](C(=O)N[C@@H](CCC(N)=O)C(N)=O)[C@@H](C)O)[C@@H](C)CC)C(C)C)[C@@H](C)CC [mt-99]	0.00%	–	0.00%	100.00%	–	–	–	–	–	–	–
CC[C@H](C)[C@H](NC(=O)[C@H](CO)NC(=O)[C@H](Cc1ccc(O)cc1)NC(=O)[C@H](CC(=O)O)NC(=O)[C@H](CO)NC(=O)[C@@H](NC(=O)[C@H](Cc1ccccc1)NC(=O)[C@@H](NC(=O)CNC(=O)[C@H](CCC(N)=O)NC(=O)[C@H](CO)NC(=O)[C@@H](N)Cc1ccc(O)cc1)[C@@H](C)O)[C@@H](C)O)C(=O)N[C@@H](Cc1ccc(O)cc1)C(=O)N[C@@H](CC(C)C)C(=O)N[C@@H](CC(=O)O)C(=O)N[C@@H](CCC(=O)O)C(=O)N[C@@H](CCC(N)=O)C(=O)N[C@H]1CCCCNC(=O)CC[C@@H](C(=O)N[C@@H](Cc2ccccc2)C(=O)N[C@H](C(=O)N[C@@H](CC(N)=O)C(=O)N[C@@H](Cc2c[nH]c3ccccc23)C(=O)N[C@@H](CC(C)C)C(=O)N[C@@H](CC(C)C)C(=O)N[C@@H](C)C(=O)NCC(=O)NCC(=O)N2CCC[C@H]2C(=O)N[C@@H](CO)C(=O)N[C@@H](CO)C(=O)NCC(=O)N[C@@H](C)C(=O)N2CCC[C@H]2C(=O)N2CCC[C@H]2C(=O)N2CCC[C@H]2C(=O)N[C@@H](CO)C(N)=O)C(C)C)NC(=O)[C@H](CCCCN)NC(=O)[C@H](C)NC1=O [mt-168] (H-YSQGTFTSDYSIYLDEQKAKEFVNWLLAGGPSSGAPPPS-NH2; lactam 18-21; N-terminus assumed)	4.79%	–	1.45%	0.32%	2.61 nM	–	–	–	–	–	–
CC[C@H](C)[C@H](NC(=O)[C@H](CO)NC(=O)[C@H](CCCCN)NC(=O)[C@H](CC(=O)O)NC(=O)[C@H](CO)NC(=O)[C@@H](NC(=O)[C@H](Cc1ccccc1)NC(=O)[C@@H](NC(=O)CNC(=O)[C@H](CCC(=O)O)NC(=O)C(C)(C)NC(=O)[C@@H](N)Cc1ccc(O)cc1)[C@@H](C)O)[C@@H](C)O)C(=O)N[C@@H](Cc1ccc(O)cc1)C(=O)N[C@@H](CC(C)C)C(=O)N[C@@H](CC(=O)O)C(=O)N[C@@H](CCCCN)C(=O)N[C@@H](CCC(N)=O)C(=O)N[C@@H](C)C(=O)N[C@@H](C)C(=O)NC(C)(C)C(=O)N[C@@H](CCC(=O)O)C(=O)N[C@@H](Cc1ccccc1)C(=O)N[C@H](C(=O)N[C@@H](CS)C(=O)N[C@@H](Cc1c[nH]c2ccccc12)C(=O)N[C@@H](CC(C)C)C(=O)N[C@@H](CC(C)C)C(=O)N[C@@H](C)C(=O)NCC(=O)NCC(=O)N1CCC[C@H]1C(=O)N[C@@H](CO)C(=O)N[C@@H](CO)C(=O)NCC(=O)N[C@@H](C)C(=O)N1CCC[C@H]1C(=O)N1CCC[C@H]1C(=O)N1CCC[C@H]1C(=O)N[C@@H](CO)C(N)=O)C(C)C [mt-338] (H-Y[Aib]EGTFTSDKSIYLDKQAA[Aib]EFVCWLLAGGPSSGAPPPS-NH2; N-terminus assumed)	–	–	–	–	–	0.01%	0.226 nM	2.70%	0.0234 nM	39.32%	–
CCCCCCCCCCCCCCCCCC(=O)NCCCC[C@H](NC(=O)[C@H](CC(=O)O)NC(=O)[C@H](CO)NC(=O)[C@@H](NC(=O)[C@H](Cc1ccccc1)NC(=O)[C@@H](NC(=O)CNC(=O)[C@H](CCC(=O)O)NC(=O)C(C)(C)NC(=O)[C@@H](N)Cc1ccc(O)cc1)[C@@H](C)O)[C@@H](C)O)C(=O)N[C@@H](CO)C(=O)N[C@H](C(=O)N[C@@H](Cc1ccc(O)cc1)C(=O)N[C@@H](CC(C)C)C(=O)N[C@@H](CC(=O)O)C(=O)N[C@@H](CCCCN)C(=O)N[C@@H](CCC(N)=O)C(=O)N[C@@H](C)C(=O)N[C@@H](C)C(=O)NC(C)(C)C(=O)N[C@@H](CCC(=O)O)C(=O)N[C@@H](Cc1ccccc1)C(=O)N[C@H](C(=O)N[C@@H](CC(N)=O)C(=O)N[C@@H](Cc1c[nH]c2ccccc12)C(=O)N[C@@H](CC(C)C)C(=O)N[C@@H](CC(C)C)C(=O)N[C@@H](C)C(=O)NCC(=O)NCC(=O)N1CCC[C@H]1C(=O)N[C@@H](CO)C(=O)N[C@@H](CO)C(=O)NCC(=O)N[C@@H](C)C(=O)N1CCC[C@H]1C(=O)N1CCC[C@H]1C(=O)N1CCC[C@H]1C(=O)N[C@@H](CO)C(N)=O)C(C)C)[C@@H](C)CC [mt-271] (H-Y[Aib]EGTFTSDK(Stearoyl)SIYLDKQAA[Aib]EFVNWLLAGGPSSGAPPPS-NH2; N-terminus assumed)	–	–	–	–	–	0.17%	0.0106 nM	185.85%	0.0056 nM	142.86%	113 nM
